The subject of series [1] is aconitine-induced arrythmia in the dog. In words: Antiarrhythmic action on aconitine-induced arrythmia in the dog (oral administration). In kind it is in vivo, dog (male or female mongrel dogs). The note with it: for change in vivo at 10 mg/kg: Canis lupus familiaris, po, 1 h, read-out: Prolongation of aconitin infusion period; for prolongation of time before arrhythmias appeared, relative to that obtained with propafenone and diprafenone (times greater): dog, 10 mg/kg, oral. The method, then: Male or female mongrel dogs weighing 12-15 kg were used. The substances to be tested were administered orally, 40 minutes after induction of anesthesia using Na pentobarbital (30 mg/kg i.v.). Cardiac arrhythmias were induced by infusion of aconitine (5 μg per kg per min), the infusion beginning 60 minutes after administration of the substance. In the ECG of untreated animals, arrhythmias (loss or inversion of P, ventricular tachyarrhythmias) occurred after an average infusion time of 6.4±0.29 min.
When the substances according to the invention were administered in a dose of 10 mg/kg, the time which elapsed before arrhythmias appeared was prolonged. […]; the antiarrhythmic activity is higher (Table 1).

The next series is described as follows: in vivo. The note with it: mouse, ip, single administration i.p., female NMRI mice, approximate values.
The test system of series [2] is arrhythmias after infarct in the conscious dog. Nature of the series: Antiarrhythmic action on arrhythmias after infarct (coronary ligature) in the conscious dog. The format is in vivo, dog (male and female beagle dogs). The following applies: for Increase in normal heart actions / inhibition of arrhythmias compared with propafenone and diprafenone (in words): oral. The method, then: The substances were also tested with regard to their action on arrhythmias after coronary ligature. This method permits conclusions to be drawn as to the action on arrhythmias after infarct in man. Male and female beagle dogs weighing 9-15 kg were used. The ramus descendens of the left coronary artery was ligatured by a modified method of Harris (Circulation, 1, 1318-1328, 1950). Tachycardic, usually ventricular arrhythmias of various origins resulted which were detectable on the ECG, with P loss QRS deformation and T wave elevation. The measure for determining antiarrhythmic action was the frequency (%) of normal heart actions ascertained during a 100-minute control period at 5-minute intervals. Hearbeats had to be at most 29% of the normal during this control period before a substance was administered. After administration, the ECG was run, as in the control period, for 100 minutes at 5-minute intervals, and then for a further 200 minutes at 10-minute intervals.

A word on the LD50: it is the dose at which mortality reaches 50%. Read a low LD50 as greater toxicity.

Consider `CC(C)NCC(O)COc1ccccc1C(=O)CCc1cccn1C` (centres unmarked) [Example 3], for which, in series [1], the change in vivo at 10 mg/kg amounted to 85%. The compound further had an LD50 in the series “in vivo” of 68.1 mg/kg.
The matching figures for `CCC(C)(C)NCC(O)COc1ccccc1C(=O)CCc1cnn(C)c1` (centres unmarked) [Example 12]: 137% and 68.1 mg/kg.
Regarding `CCC(C)(C)NCC(O)COc1ccccc1C(=O)CCc1ccccc1` (centres unmarked) [diprafenone, 2-[2-hydroxy-3-(1,1-dimethylpropylamino)-propoxy]-ω-phenylpropiophenone, reference compound], the change in vivo at 10 mg/kg in series [1] was 33%. For the same compound, the “Increase in normal heart actions” value in series [2] (dose 21.5 mg/kg) is 43%. The same compound yielded an LD50 in the series “in vivo” of 68.1 mg/kg.
With `CC(C)NCC(O)COc1ccccc1C(=O)CCc1ccn(C)c1` (centres unmarked) [Example 7], in series [1], the change in vivo at 10 mg/kg came out at 193%; the “prolongation of time before arrhythmias appeared, relative to that obtained with propafenone and diprafenone (times greater)” value was “six times”. Further, the “inhibition of arrhythmias compared with propafenone and diprafenone (in words)” value in series [2] was “more active than propafenone and diprafenone at the same rate”. Also, in series [2] (dose 10.0 mg/kg), the “Increase in normal heart actions” value amounted to 92%. The median lethal dose (LD50) in “in vivo” was 46.4 mg/kg.
Take `CC(C)N(CC(O)COc1ccccc1C(=O)CCc1cccn1C)C(C)C` (centres unmarked) [Example 5]: the change in vivo at 10 mg/kg in series [1] came to 85%. Moreover, the “inhibition of arrhythmias compared with propafenone and diprafenone (in words)” value in series [2] is “more active than propafenone and diprafenone at the same rate”. Also, in series [2] (dose 10.0 mg/kg), the “Increase in normal heart actions” value was 66%. In the series “in vivo”, this compound registered an LD50 of 68.1 mg/kg.
As to `CCCNCC(O)COc1ccccc1C(=O)CCc1cccn1C` (centres unmarked) [Example 4], in series [1], the change in vivo at 10 mg/kg amounted to 70%; the “prolongation of time before arrhythmias appeared, relative to that obtained with propafenone and diprafenone (times greater)” value is recorded as “twice”. This compound had an LD50 in the series “in vivo” of 46.4 mg/kg.
In the case of `CCCNCC(O)COc1ccccc1C(=O)CCc1cnn(C)c1` (centres unmarked) [Example 9], the change in vivo at 10 mg/kg in series [1] amounted to 154%. Moreover, the “inhibition of arrhythmias compared with propafenone and diprafenone (in words)” value in series [2] was “inhibited arrhythmias to just as great an extent as propafenone, and to a far greater extent than diprafenone”. Also, the “oral dosage rate giving inhibition of arrhythmias as great as propafenone (times less)” value in series [2] (relative to propafenone) is recorded as “about 5 times less”. The compound also returned an LD50 in the series “in vivo” of 31.6 mg/kg.

The values are drawn from patent US5118685A, “Aminopropanol derivatives of substituted 2-hydroxy-propiophenones, and therapeutic agents containing these compounds” (BASF Aktiengesellschaft, priority 1983, dated 1992).
